How the values were obtained:
biofilm [1] = assay: Pilot plant wastewater pipes, difference in Hazen-Williams coefficient treated vs control pipe; conditions: single 3 h treatment on day 1 at 10 ppm as total chlorine
Procedure: Treated wastewater was pumped through several pipes of 10 m length and 4 inches inner diameter in a pilot plant. […] Pressure drop through each pipe was monitored on-line, and average HW coefficients were calculated.
The biofilm inhibiting substance in this example was produced as follows, using a small feeding system was built specifically for this trial. […] The concentration of the biofilm inhibiting substance pre-injection solution was ˜3600 ppm and the pH was 9.2-9.6. […]

catalase (Merck) = assay: Inactivation of catalase, residual H2O2 laboratory test; format: biochemical; conditions: for Residual H2O2 concentration, % of 3.5% g/l: catalase 26 units/ml
Procedure: Freshly prepared biofilm inhibiting substance was added to the appropriate flasks containing diluted catalase at a pre-defined feed rate. The contents of the containers were mixed for 60 minutes at room temperature prior to addition of H2O2 (to a final H2O2 concentration of 3.5 g/l). After addition of the H2O2, the mixture was allowed to mix for 30 minutes at room temperature, at which point H2O2 residues were measured in each flask in accordance with the Dr. Lange Cuvette Test LCW 058, measured with LASA 20 (based on Jander/Blasius: Lehrbach der Analytischen and Praparative Anorganischen Chemie, as described in the Handbook of Photometrical Operation Analysis (October 1997)).
Sodium hypochlorite was diluted in DI water to a final concentration of 6000 ppm expressed as total chlorine. Ammonium bromide solution (equimolar to 1.1 mole of the diluted sodium hypochlorite solution, 10% excess on a molar basis) and ammonium chloride solution (equimolar to 1.1 mole of the diluted hypochlorite solution, 10% excess on a molar basis) were prepared. The diluted hypochlorite (50 ml) was added dropwise to 50 ml of the appropriate ammonium salt while the pH was constantly measured. The biofilm inhibiting substance concentration in the produced stock solution was immediately measured and the biofilm inhibiting substance at the appropriate feed level was immediately added to the test flasks.

[2] = system: mixed culture of slime-forming-bacteria which had been isolated from a paper machine; assay: Formation of biofilm on stainless steel coupons in a model system (viable counts in medium and on coupons); format: cell-based
Procedure: Formation of biofilm on stainless steel coupons in the presence or absence of an oxidizing biocide or a biofilm inhibiting substance was evaluated in the laboratory. The test system consisted of (a) three closed flasks each containing 20 L nutrient-rich medium (diluted three-fold from its recommended use concentration), (b) three closed cells containing stainless steel coupons hanging freely, and (c) three identical circulation pumps, each pump connected via plastic pipes to one of the flasks and to one of the cells. The system was placed in a thermostatic room at 35° C.
An innoculum containing a mixed culture of slime-forming-bacteria which had been isolated from a paper machine was added to each of the flasks. An oxidizer containing a 5 ppm mixture (expressed as total Cl2) of bromochlorodimethylhydantoin (an oxidizing biocide which is a source of HOBr and HOCl) (hereinafter “mixed halogens”) was added to the first flask once a day for the duration of the trial (4 days). […] The third flask served as a control for the two flasks treated with the oxidizing biocide or biofilm inhibiting substances. […] A diluted solution of sodium hypochlorite in deionized (DI) water (˜8000 ppm as total chlorine) was fed with one pump; a diluted solution of ammonium bromide (12500 ppm) was fed with the second pump. The two diluted solutions were synchronously mixed in a short glass pipe to form a pre-injection solution of biofilm inhibiting substance, using a pH meter to control and check the stability of the biofilm inhibiting substance formed. The biofilm inhibiting substance was fed to the test system immediately as it was produced.
On days 2 and 4, each closed cell was opened and 2 coupons were aseptically removed from each cell. At the same time samples of the circulating medium were taken as well. Sampling was conducted after feeding the daily slug dose of biocide.
Each sample of medium was serially 10-fold diluted in sterile saline solution and plated in molten agar. Each coupon was thoroughly rinsed to remove any adhered particles, aseptically scraped, and the material removed by scraping was quantitatively dispersed in saline solution, vortexed, serially 10-fold diluted and plated in molten agar. Viable counts of microorganisms were taken after 48 h of incubation at 35° C. Viable counts of cells in the medium are presented as colony forming units (cfu) per ml; viable counts on the coupon surfaces are presented as cfu/cm^2.

biofilm [3] = assay: Waste water fouling control in a 7 km pipe, Hazen-Williams coefficient; conditions: NaOCl at a level of up to 50 mg/l (calculated as Cl2)
Procedure: Treated wastewater was piped from a wastewater treatment plant to a location 7 kilometers away.
(The Hazen-Williams coefficient is used to express water flow through industrial pipes. It is calculated using the formula
[formula] wherein P is the friction pressure drop expressed in pounds per square inch per 1000 feet of pipe length, B is the flow rate in barrels per hour, s is the specific gravity of the liquid, C=a friction factor (the Hazen-Williams coefficient), and d is the internal diameter of the pipe in inches. P and B are measured for a given pipe, s and d are treated as constants, and C is calculated. The results are presented as the Hazen-Williams coefficient.
Waste water (up to 10 m^3/h) was used to appropriately dilute both chemicals. An on-line pH meter controlled the production process and the hypochlorite feeding rate to ensure the production of a stable biofilm inhibiting substance. The biofilm inhibiting substance was injected into the treated waste pipe as it was produced. Concentration of the biofilm inhibiting substance stock solution was 3000-4000 ppm; the pH was maintained at 9.5-10.

[4] = De-inking plant field trial, residual H2O2, residual biofilm inhibiting substance and H2O2 consumption
Procedure: A de-inking system had been using 7-10 kg H2O2 per ton of waste paper.
The reaction pH was Maintained at 9.8-10.0. The Production process was controlled to ensure synchronous metering of the two chemicals, continuous mixing at the predetermined molar ratio and reproducible production of a stable biofilm inhibiting substance stock solution for the duration of the trial and longer. […] After 850 minutes the dosing rate was reduced to 85 g/ton expressed as total Cl2 by feeding the biofilm inhibiting substance semi-continuously. Various parameters were monitored during start-up of the trial: Residual biofilm inhibiting substance was measured (using a Hach pocket colorimeter, total Cl2, based on the DPD method adapted from Standard Methods for Examination of Waste and Waste Water). […] When necessary, samples were diluted with DI water.

NCl [Chloramine, monochloroamine, reference compound]
HW Diff. treated pipe - Control (biofilm [1]; day 1): 13.0 | HW Diff. treated pipe - Control (biofilm [1]; day 2): 10.8 | HW Diff. treated pipe - Control (biofilm [1]; day 3): 10.7 | HW Diff. treated pipe - Control (biofilm [1]; day 4): 15.0 | HW Diff. treated pipe - Control (biofilm [1]; day 5): 15.2 | HW Diff. treated pipe - Control (biofilm [1]; day 6): 15.15 | HW Diff. treated pipe - Control (biofilm [1]; day 7): 14.6 | HW Diff. treated pipe - Control (biofilm [1]; day 8): 12.9 | HW Diff. treated pipe - Control (biofilm [1]; day 9): 13.0 | HW Diff. treated pipe - Control (biofilm [1]; day 10): 11.5 | HW Diff. treated pipe - Control (biofilm [1]; day 11): 9.5 | HW Diff. treated pipe - Control (biofilm [1]; day 12): 8.6 | HW Diff. treated pipe - Control (biofilm [1]; day 13): 7.0 | HW Diff. treated pipe - Control (biofilm [1]; day 14): 6.2 | HW Diff. treated pipe - Control (biofilm [1]; day 15): 4.4 | HW Diff. treated pipe - Control (biofilm [1]; day 16): 2.4 | HW Diff. treated pipe - Control (biofilm [1]; day 17): 0.8 | HW Diff. treated pipe - Control (biofilm [1]; day 18): 0.7 | oxidation of H2O2 by the substance (catalase (Merck)): do not oxidize H2O2 | Residual H2O2 concentration, % of 3.5% g/l (catalase (Merck); BIS 6.7 ppm as total chlorine): 6.8 % of 3.5% g/l | Residual H2O2 concentration, % of 3.5% g/l (catalase (Merck); BIS 58 ppm as total chlorine): 97.1 % of 3.5% g/l | Residual H2O2 concentration, % of 3.5% g/l (catalase (Merck); BIS 128 ppm as total chlorine): 99.4 % of 3.5% g/l

CC1(C)C(=O)N(Cl)C(=O)N1Br [Mixed Halogens, bromochlorodimethylhydantoin, reference compound]
increase in the viable count of biofilm bacteria compared to day 2 ([2]; coupons after 4 days): 3 fold | reduction in viable count of planktonic microorganisms ([2]; medium sample after four days): ~10 fold | Viable Counts After 2 Days, medium ([2]; planktonic cells in circulating medium, day 2, daily slug dose (Mixed Halogens 5 ppm, Fuzzicide BAC […] expressed as Cl2), 35° C.): 9 × 10^6 cfu/ml | Viable Counts After 4 Days, medium ([2]; planktonic cells in circulating medium, day 4, daily slug dose (Mixed Halogens 5 ppm, Fuzzicide BAC […] expressed as Cl2)): 1 × 10^6 cfu/ml | Viable Counts After 2 Days, coupon surfaces ([2]; stainless steel coupons, day 2, daily slug dose (Mixed Halogens 5 ppm, Fuzzicide BAC […] expressed as Cl2)): 27 cfu/cm^2 | Viable Counts After 4 Days, coupon surfaces ([2]; stainless steel coupons, day 4, daily slug dose (Mixed Halogens 5 ppm, Fuzzicide BAC […] expressed as Cl2)): 95 Cfu/cm^2

[Na+].[O-]Cl [NaOCl, reference compound]
improving water conductivity in the pipes (biofilm [3]): ineffective

O=CCCCC=O [glutaraldehyde, reference compound]
average H2O2 consumption rate ([4]; parallel de-inking system at the same plant, commercial chemical formulation containing glutaraldehyde): ~4 kg H2O2/ton of waste paper | control of the enzymatic degradation of H2O2 ([4]; previous attempts on the trial de-inking system): did not yield cost-effective results

Source: patent US8444858B2, “Control of development of biofilms in industrial process water” (A.Y. Laboratories Ltd., priority 2001, dated 2013)
